IC50 and inhibition data for 3 molecules are collected here from PMC11081522, “In silico identification of a novel Cdc2‐like kinase 2 (CLK2) inhibitor in triple negative breast cancer” (Protein Science : A Publication of the Protein Society, 2024).

Where two headings read alike, the source gives them in different places.

Holding throughout (format): biochemical
The target in assay [1] is T1, CLK2 (Cdc2-like kinase 2) (Homo sapiens, UniProt P49760).
T1 construct: commercial enzyme of Thermo Fisher SelectScreen service
T1 sequence (P49760 whole entry): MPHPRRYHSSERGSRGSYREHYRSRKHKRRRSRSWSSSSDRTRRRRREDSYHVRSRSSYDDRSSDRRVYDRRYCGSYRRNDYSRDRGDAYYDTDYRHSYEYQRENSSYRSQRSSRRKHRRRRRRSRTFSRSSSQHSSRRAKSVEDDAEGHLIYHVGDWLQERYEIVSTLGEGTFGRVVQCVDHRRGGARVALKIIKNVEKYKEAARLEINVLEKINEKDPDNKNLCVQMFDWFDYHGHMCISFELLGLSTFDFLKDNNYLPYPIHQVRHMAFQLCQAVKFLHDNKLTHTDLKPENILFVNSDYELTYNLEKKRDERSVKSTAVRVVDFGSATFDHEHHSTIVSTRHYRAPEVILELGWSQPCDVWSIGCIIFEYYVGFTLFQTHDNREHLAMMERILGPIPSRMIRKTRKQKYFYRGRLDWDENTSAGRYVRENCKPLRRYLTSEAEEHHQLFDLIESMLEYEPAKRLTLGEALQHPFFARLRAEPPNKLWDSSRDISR
Nature of the assay: Z'LYTE FRET peptide kinase assay. An excerpt:
Z'LYTE FRET peptide kinase assay on CLK2 (Cdc2-like kinase 2)

The target in a further assay is T2, CLK3 (Homo sapiens, UniProt P49761).
T2 construct: kinase selectivity panel enzyme
T2 sequence (P49761 whole entry): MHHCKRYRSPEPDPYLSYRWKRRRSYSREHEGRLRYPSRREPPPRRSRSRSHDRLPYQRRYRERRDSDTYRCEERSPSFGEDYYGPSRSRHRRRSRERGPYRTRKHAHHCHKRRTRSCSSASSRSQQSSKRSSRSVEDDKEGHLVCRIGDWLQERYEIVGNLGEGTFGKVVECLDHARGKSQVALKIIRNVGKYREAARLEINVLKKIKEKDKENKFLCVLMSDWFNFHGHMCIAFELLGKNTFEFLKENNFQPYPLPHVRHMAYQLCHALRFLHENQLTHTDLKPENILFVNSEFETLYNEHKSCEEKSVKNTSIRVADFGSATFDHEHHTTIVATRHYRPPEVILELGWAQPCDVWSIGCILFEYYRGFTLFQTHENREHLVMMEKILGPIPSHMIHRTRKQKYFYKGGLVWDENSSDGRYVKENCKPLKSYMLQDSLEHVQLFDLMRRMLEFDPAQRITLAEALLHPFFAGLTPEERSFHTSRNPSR
The assay can be described thus: kinase selectivity panel.

Assay [2] has as its target T3, TTK (Threonine tyrosine kinase; Monopolar Spindle 1, Mps1) (Homo sapiens, UniProt P33981).
T3 construct: kinase selectivity panel enzyme
T3 sequence (P33981 1-857): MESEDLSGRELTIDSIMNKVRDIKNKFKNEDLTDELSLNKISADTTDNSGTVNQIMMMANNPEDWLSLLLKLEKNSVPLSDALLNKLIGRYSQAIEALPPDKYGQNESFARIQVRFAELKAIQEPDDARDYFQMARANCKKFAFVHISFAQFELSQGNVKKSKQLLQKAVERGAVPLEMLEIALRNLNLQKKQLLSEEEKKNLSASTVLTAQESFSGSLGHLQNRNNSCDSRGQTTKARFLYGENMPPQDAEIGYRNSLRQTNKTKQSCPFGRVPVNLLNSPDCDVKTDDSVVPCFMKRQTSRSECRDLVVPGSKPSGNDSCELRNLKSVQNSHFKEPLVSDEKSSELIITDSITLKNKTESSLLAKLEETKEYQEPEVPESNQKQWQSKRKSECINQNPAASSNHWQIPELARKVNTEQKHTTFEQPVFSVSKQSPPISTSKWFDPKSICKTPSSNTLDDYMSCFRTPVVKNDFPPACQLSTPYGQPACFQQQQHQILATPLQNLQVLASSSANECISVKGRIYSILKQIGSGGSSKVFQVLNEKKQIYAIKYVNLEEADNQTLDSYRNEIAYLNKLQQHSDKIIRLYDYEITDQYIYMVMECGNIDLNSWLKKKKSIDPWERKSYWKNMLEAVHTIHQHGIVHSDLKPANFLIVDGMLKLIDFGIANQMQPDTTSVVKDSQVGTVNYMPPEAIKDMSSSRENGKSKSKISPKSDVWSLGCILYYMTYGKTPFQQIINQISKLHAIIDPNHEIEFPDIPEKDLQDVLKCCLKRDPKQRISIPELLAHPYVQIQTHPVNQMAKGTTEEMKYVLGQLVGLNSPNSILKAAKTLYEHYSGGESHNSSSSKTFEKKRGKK
The assay can be described thus: kinase selectivity panel.

As for `Nc1ncnc2oc(-c3ccccc3)c(-c3ccccc3)c12` [compound 153298, 153298], the 50% inhibitory concentration (IC50) in assay [1] stood at 2.25 µM.
On to `CSc1nc(Cl)cc(Sc2nc(N)nc3nc[nH]c23)n1` [compound 51564, 51564], for which the IC50 in assay [1] (ATP and peptide substrate, 1% DMSO, room temperature, 60 min) turned out to be 1.33 µM.
For the molecule `CC(c1ccccc1)n1c2ccccc2c2c(N)ncnc21` (centres unmarked) [compound 670551, Compound 670551], the inhibition at 1 µM against CLK3 came out at 46%; in assay [2] it was 43%. Further, in assay [1], half-maximal inhibition (IC50) was put at 0.62 µM.

The IC50 is the midpoint of a concentration-inhibition curve. A lower IC50 goes with higher potency. A word on the inhibition: it is the change of the read-out against control, counted positive when it falls. Lower therefore signals a response near the control.
